Source: ChEMBL document CHEMBL1150076, “Effects of various isoquinoline alkaloids on in vitro 3H-dopamine uptake by rat striatal synaptosomes” (J Nat Prod, 1995)

Target: Sodium-dependent dopamine transporter (Rattus norvegicus, UniProt P23977)
Format: subcellular, Wistar, Brain, Synaptosomes

Chain of Sodium-dependent dopamine transporter (P23977 whole entry): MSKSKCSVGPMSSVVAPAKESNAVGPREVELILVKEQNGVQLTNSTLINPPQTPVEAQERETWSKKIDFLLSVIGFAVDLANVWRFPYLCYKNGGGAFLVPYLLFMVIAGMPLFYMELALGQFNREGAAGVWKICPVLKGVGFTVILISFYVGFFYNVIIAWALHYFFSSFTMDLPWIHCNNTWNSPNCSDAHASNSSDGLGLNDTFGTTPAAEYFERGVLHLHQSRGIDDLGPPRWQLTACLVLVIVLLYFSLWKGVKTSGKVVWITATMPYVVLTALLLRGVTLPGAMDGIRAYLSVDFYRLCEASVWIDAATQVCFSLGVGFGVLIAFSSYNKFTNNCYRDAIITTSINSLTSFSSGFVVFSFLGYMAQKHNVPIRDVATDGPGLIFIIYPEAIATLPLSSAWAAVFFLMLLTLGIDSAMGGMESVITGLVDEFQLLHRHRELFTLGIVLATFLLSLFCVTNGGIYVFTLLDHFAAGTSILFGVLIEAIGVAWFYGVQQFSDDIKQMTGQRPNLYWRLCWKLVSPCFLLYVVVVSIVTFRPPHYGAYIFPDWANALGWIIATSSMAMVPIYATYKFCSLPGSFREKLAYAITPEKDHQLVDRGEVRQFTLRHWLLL

Point of comparison: `COc1ccc2cc1Oc1ccc(cc1)C[C@@H]1c3cc(c(OC)cc3CCN1C)Oc1c(OC)c(OC)cc3c1[C@H](C2)N(C)CC3` [ISOTETRANDRINE], IC50 4.2 µM. Against it:
- COc1cc2ccnc3c2c(c1OC)-c1ccccc1C3=O [LYSICAMINE] — higher, > 100 µM
- COc1cc2c(cc1OC)[C@@H](Cc1ccc(OC)c(Oc3ccc(C[C@H]4NCCc5cc(OC)c(OC)cc54)cc3)c1)N(C)CC2 [PAMPULHAMINE] — 20-fold higher, 84.2 µM
- COc1ccc2c(c1)c(C)c1c3c(cc4c(c32)OCO4)CCN1C — 11-fold higher, 46.6 µM
- COc1ccc(C[C@H]2c3c(cc(OC)c4c3Oc3cc5c(cc3O4)CCN(C)C5=O)CCN2C)cc1-c1cc(C=O)ccc1O [SECOLUCIDINE] — higher, > 100 µM
- COc1ccc2cc1Oc1ccc(cc1)C[C@H]1c3c(cc(OC)c(OC)c3Oc3cc4c(cc3OC)CCN(C)[C@@H]4C2)CCN1C [OBABERINE] — within 1.5-fold, 3.9 µM
- COc1cc2c(cc1OC)Oc1c(O)ccc3c1[C@H](C2)N(C)CC3 [CULARIDINE] — 9.8-fold higher, 41.2 µM
- COc1cc2c(cc1O)C[C@@H]1NCCc3cc(O)c(OC)c-2c31 [NORBOLDINE] — 3.9-fold higher, 16.5 µM
- COc1ccc2c(c1OC)Oc1c(O)ccc3ccnc(c13)C2 [OXOSARCOPHYLLINE] — higher, > 100 µM
- COc1ccc2cc1Oc1ccc(cc1)C[C@H]1c3c(cc(OC)c(O)c3Oc3cc4c(cc3OC)CCN(C)[C@@H]4C2)CCN1C [HOMOAROMOLINE] — 2.6-fold higher, 10.9 µM
- COc1cc2c(cc1OC)Oc1c(O)ccc(CCN(C)C)c1C=C2 [SECOCULARIDINE] — 3.2-fold higher, 13.4 µM
- COc1cccc2c1-c1c3c(cc4c1[C@@H](C2)N(C)CC4)OCO3 — 7.6-fold higher, 31.8 µM
- COc1cc2c3cc1Oc1c(O)c(OC)cc4c1[C@H](Cc1ccc(OC)c(c1)-c1cc(ccc1O)C[C@H]3N(C)CC2)N(C)CC4 [ANTIOQUINE] — within 1.5-fold, 3.4 µM
- COc1ccc2c(c1O)Oc1c(O)ccc3c1[C@H](C2)N(C)CC3 [CLAVICULINE] — higher, > 100 µM
- COc1c(O)c2c3c(nccc3c1OC)C(C)(C)c1cc(O)ccc1-2 [MELOSMINE] — 5.6-fold higher, 23.6 µM
- COc1cc2c(cc1Oc1c(O)c(OC)cc3c1[C@H](Cc1ccc(OC)c(-c4cc(C=O)ccc4O)c1)N(C)CC3)C(=O)N(C)CC2 [SECANTIOQUINE] — higher, > 100 µM
- COc1cc2c(cc1OC)C(=O)c1nccc3ccc(OC)c(c13)O2 [OXOCULARINE] — higher, > 100 µM
- COc1c(O)c2c3c(c1OC)CCN(C)[C@@H]3Cc1ccccc1-2 — 11-fold higher, 46.4 µM
- COc1cc2c(cc1O)C[C@H]1c3c(ccc(O)c3O2)CCN1C [BREOGANINE] — 13-fold higher, 56.5 µM
- COc1cc2c(cc1OC)Oc1c(OC)ccc(CCN(C)C)c1C=C2 [SECOCULARINE] — 6.7-fold higher, 28.2 µM
- c1ccc2c(c1)C[C@H]1NCCc3cc4c(c-2c31)OCO4 [ANONAINE] — 5.2-fold lower, 0.8 µM
- COc1cc2c3c(c(-c4c5c6c(cc7c(c6c6ccccc46)OCO7)CCN5)c4ccccc4c3c1OC)NCC2 [HETEROPSINE] — higher, > 100 µM
- COc1cc2c3c(c1OC)-c1c(ccc(O)c1O)C[C@H]3N(C)CC2 [SAUVEOLINE] — higher, > 100 µM
- Cc1c2c3c(cc4c(c3c3ccc(O)cc13)OCO4)CCN2C [BELEMINE] — 15-fold higher, 61.4 µM
- COc1cc(C[C@H]2c3c(ccc(OC)c3O)CCN2C)ccc1O [ISOCRASSIFOLINE] — 8.6-fold higher, 36.2 µM
- COc1cc2c3cc1Oc1c(OC)c(OC)cc4c1[C@@H](C(=O)c1ccc(OC)c(c1)-c1cc(ccc1OC)C[C@H]3N(C)CC2)N(C)CC4 [DIMETHYLPSEUDOXANDRINE] — 4.8-fold higher, 20.1 µM
- O=C1c2ccccc2-c2c3c(cc4ccnc1c24)OCO3 [LIRIODENINE] — 7.4-fold higher, 31.2 µM
- O=C(O)CCCCCCNC1c2ccccc2CCc2ccccc21 [AMINEPTINE] — 4.2-fold lower, 1 µM
- COc1cc2c(cc1O)Oc1c(O)ccc3c1[C@H](C2)N(C)CC3 [CELTISINE] — higher, > 100 µM
- COc1cc2c(cc1OC)[C@@H](Cc1ccc(Oc3cc(C[C@H]4c5cc(OC)c(OC)cc5CCN4C)ccc3OC)cc1)N(C)CC2 [DIMETHYLGRISABINE] — 3.8-fold lower, 1.1 µM
- COc1c(O)c2c3c(c1OC)CCN[C@@H]3Cc1ccccc1-2 [ISOPILINE] — 1.7-fold lower, 2.5 µM
- COc1cc2c(cc1O)[C@H](Cc1ccc(O)cc1)NCC2 [L-COCLAURINE] — 3.4-fold higher, 14.1 µM
- COc1cc2c(cc1OC)[C@@H](Cc1ccc(Oc3cc(C[C@@H]4c5cc(OC)c(OC)cc5CCN4C)ccc3OC)cc1)N(C)CC2 — within 1.5-fold, 5.8 µM
- COc1cc2c(cc1OC)[C@H](Cc1ccc(O)cc1)NCC2 [NORARMEPAVINE] — 8.8-fold higher, 37 µM
- COc1c2c3c(c4c1OCO4)-c1ccccc1C[C@H]3NCC2 [NORSTEPHALAGINE] — 3-fold lower, 1.4 µM
- COc1ccc2c(c1O)Oc1c(OC)ccc3c1[C@H](C2)N(C)CC3 [SARCOCAPNIDINE] — 20-fold higher, 85.5 µM
- Oc1ccc2c(c1)C[C@H]1NCCc3cc4c(c-2c31)OCO4 [ANOLOBINE] — 1.9-fold higher, 8.1 µM
